The source of these data is US9365534B2, “Arylated camphenes, processes for their preparation and uses thereof” (Yissum Research Development Company of the Hebrew …, priority 2009, dated 2016).

The term Ki denotes the dissociation constant of the complex between target and ligand, obtained from inhibition or displacement. One may read the IC50 as the concentration at which inhibition is half-maximal. For orientation: Emax means the greatest response seen or fitted, relative to the assay's reference.

The target of test [1] is T1, human CB2 receptor (Homo sapiens (Human), UniProt P34972). The test can be described thus: Membrane competition binding assay with [3H]-CP 55,940, CHO-CB2 membranes. The source says: (§1) The cDNA clones for human HA-tagged CB1 and CB2 receptors were obtained from the Missouri S&T cDNA Resource Center (www.cdna.org) in cloning vector pcDNA3.1+. The vector containing the human CB2 receptor was transfected directly into CHO-KI cells obtained from ATCC. The HA-tagged human CB1 receptor sequence was subcloned into the pef4-V5-HisA vector with Kpn1 and Pme1 restriction enzymes and subsequently transfected into CHO-K1 cells. Cells were clonally isolated by limited dilution and screened by immunocytochemistry for expression of the HA tag.
(§2) Cells were maintained in DMEM/F12 media supplemented with 10% fetal bovine serum (FBS), 100 units/ml penicillin and 100 μg/ml streptomycin and 2 mM L-glutamine. Transfected cell lines were maintained with additional 150 ug/ml zeocin for pEF HA-CB1 transfected cells and 500 ug/ml G-418 for pcDNA HA-CB2 transfected cells (all reagents obtained from Invitrogen).
(§3) Cells were grown to confluence and harvested in ice cold phosphate buffered saline with 5 mM EDTA. Cells were spun at 200×g for 10 min and frozen at −80° C. until required. Cell pellets were thawed with cold 0.32 M sucrose and homogenised with a glass homogeniser. The homogenate was spun at 1000×g for 10 min at 4° C. and the supernatant spun in a Sorvall ultracentrifuge for 30 min at 100,000×g. The pellet was then washed in ice cold water and re-spun twice more. The final pellet was resuspended in 50 mM Tris pH 7.5, 0.5 mM EDTA. Protein concentration was determined using the Dc protein assay kit (BioRad, Hercules, Calif., USA).
(§4) Membranes (5-10 μg) were incubated with radioligand and a range of concentrations of test compounds in binding buffer (50 mM Tris pH 7.4, 5 mM MgCl2, 1 mM EDTA) with 0.5% (w/v) bovine serum albumin (BSA) (ICP Bio, New Zealand), at 30° C. for 60 min. Stock solutions of putative cannabinoid ligands were prepared in dimethyl sulfoxide to a concentration of 10 mM. Six different final concentrations of compounds were used ranging from 50 μM to 0.1 nM. […] Assays were terminated by addition of 2 ml ice cold binding buffer and filtration through GF/C filters (Whatman) pre-soaked in cold binding buffer, followed by two washes in the same buffer.
(§5) Radioactivity was determined by incubation of filters with Irgasafe scintillation fluid (PerkinElmer) and scintillation counting in a Wallac Trilux using Microbeta Trilux software. Data was analysed using the Prism 4.02 programme (GraphPad Software, San Deigo, Calif., USA).
(§6) All data was analyzed using Prism 4.02. For binding data the Ki was determined from IC50 values derived from competition binding data fitted with one site competition non-linear regression analysis by Prism 4.02 using the Kd values reported above.

In test [2] the target is T2, human CB1 receptor (Homo sapiens (Human), UniProt P21554). The test can be described thus: Membrane competition binding assay with [3H]-CP 55,940, CHO-CB1 membranes. To be noted: read-out: Competition Binding Assay CB1 Receptor Ki.
T2 sequence (P21554 whole entry): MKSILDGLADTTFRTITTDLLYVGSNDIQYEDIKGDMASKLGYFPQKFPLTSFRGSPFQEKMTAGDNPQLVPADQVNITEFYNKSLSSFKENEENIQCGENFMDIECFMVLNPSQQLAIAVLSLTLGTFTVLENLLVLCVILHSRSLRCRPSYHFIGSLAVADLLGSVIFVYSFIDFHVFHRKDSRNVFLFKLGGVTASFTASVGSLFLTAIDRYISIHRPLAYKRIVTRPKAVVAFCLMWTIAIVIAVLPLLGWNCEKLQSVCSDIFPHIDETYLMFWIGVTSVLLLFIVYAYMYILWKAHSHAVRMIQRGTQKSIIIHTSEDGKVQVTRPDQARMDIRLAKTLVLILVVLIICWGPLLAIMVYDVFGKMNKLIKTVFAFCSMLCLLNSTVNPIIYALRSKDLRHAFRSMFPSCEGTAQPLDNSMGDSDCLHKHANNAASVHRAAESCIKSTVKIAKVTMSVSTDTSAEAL
Text: as §1, §2, §3, §4, §5, §6

For test [3], the target named is T2, human CB1 receptor. The test can be described thus: cell-based. As to conditions: for IC50: whole cells expressing CB1, 50 μM forskolin, read-out: cAMP Assay CB1 Receptor IC50.
Text: as §1, §2
(§7) Cells were seeded at a density of 10,000 cells per well in poly-L-lysine treated 96-well culture plates (BD Biosciences). The following day wells were incubated with 40 μl DMEM/F12 containing 0.5% (w/v) BSA and 0.5 mM 3-isobutyl-1-methylxanthine (Sigma-Aldrich) for 30 minutes prior to 15 min stimulation with 50 μM forskolin (Tocris Cookson) and varying concentrations of indicated compounds at 37° C., 5% CO2. Assays were stopped by removal of media and addition of 100% ice cold ethanol. Plates were then frozen for a minimum of two hours before complete evaporation of ethanol. The well contents were then reconstituted in 50 μl cAMP assay buffer (20 mM HEPES pH 7.5 and 5 mM EDTA). Half of the reconstituted sample was transferred to round bottom 96-well plates (Greiner Bio-One GmbH) with 50 μl 0.01% w/v PKA (cAMP dependent protein kinase (Sigma-Aldrich) in 1 mM Na citrate pH 6.5 with 2 mM dithiothreitol) and 25 μl [^3H]-cAMP (at 22 nM in cAMP assay buffer) (GE Healthcare, Life Sciences). This was allowed to equilibrate for 3-18 hours. Following this a charcoal slurry (5% (w/v) activated charcoal and 0.2% (w/v) BSA in cAMP assay buffer) was added to the samples and the plates centrifuged at 3000×g, 4° C. for 5 min. Radioactive counts within the supernatant were then determined as described for competition binding assays.
(§8) pIC50 values were determined from cAMP assays by fitting a sigmoidal concentration response curve using Prism 4.02.

The target in test [4] is T1, human CB2 receptor. The test can be described thus: cell-based.
Text: as §1, §2, §7, §8

Where [5] appears, read: CHO-CB2 cellular membranes, 2.5 nM [3H]-CP 55,940.
[6] abbreviates: CHO-CB1 cellular membranes, 2.5 nM [3H]-CP 55,940.
Setting [7] is: whole cells expressing CB2, 50 μM forskolin; read-out: cAMP Assay CB2 Receptor IC50.
[8] abbreviates: CHO, read-out: cAMP Assay CB2 Receptor Emax.
The mark [9] stands for this setting: read-out: cAMP Assay CB2 Receptor IC50.

Where two headings read alike, the source gives them in different places.

As to `CCCCCc1cc(OC)c(C2C(O)[C@]3(C)CC[C@H]2C3(C)C)c(OC)c1` (stereo partly drawn) [HU-938, (1R,4R)-3-(2,6-dimethoxy-4-pentylphenyl)-1,7,7-trimethylbicyclo[2.2.1]heptan-2-ol], the inhibitory constant (Ki) was 7.91 µM on human CB2 receptor [1] (setting [5]) and over 50 µM on human CB1 receptor [2] (setting [6]). For the same molecule, the IC50 on human CB1 receptor [3] and on human CB2 receptor [4] (setting [7]) was over 50 µM throughout.
For the molecule `CCCCCc1cc(OC)c(C2=C[C@H]3CC[C@]2(C(=O)O)C3(C)C)c(OC)c1` [HU-974, (1S,4R)-2-(2,6-dimethoxy-4-pentylphenyl)-7,7-dimethylbicyclo[2.2.1]hept-2-ene-1-carboxylic acid], the inhibitory constant (Ki) at human CB2 receptor [1] is over 10 µM; on human CB1 receptor [2] (setting [6]), over 50 µM. The IC50 at human CB1 receptor [3] and on human CB2 receptor [4] was over 50 µM throughout.
Turning to `CCCCCc1cc(OC)c(C2=C[C@@H]3CC[C@@]2(C(=O)O)C3(C)C)c(OC)c1` [HU-973, (1R,4S)-2-(2,6-dimethoxy-4-pentylphenyl)-7,7-dimethylbicyclo[2.2.1]hept-2-ene-1-carboxylic acid], the values for the inhibitory constant (Ki) at human CB2 receptor [1] and at human CB1 receptor [2] (setting [6]) were 1.15 µM and over 50 µM, respectively. Moreover, the IC50 on human CB1 receptor [3] is over 50 µM; on human CB2 receptor [4] (setting [9]), 2.09 µM. In addition, the maximum response (Emax) on human CB2 receptor [4] (setting [8]) was 40 ± 6%.
In the case of `CCCCCc1cc(OC)c(C2C(=O)[C@]3(C)CC[C@H]2C3(C)C)c(OC)c1` (stereo partly drawn) [HU-936, (1R,4R)-3-(2,6-dimethoxy-4-pentylphenyl)-1,7,7-trimethylbicyclo[2.2.1]heptan-2-one], the inhibition constant Ki was 1.72 µM on human CB2 receptor [1] (setting [5]) and over 50 µM at human CB1 receptor [2] (setting [6]). Besides, the IC50 on human CB1 receptor [3] and on human CB2 receptor [4] (setting [7]) was over 50 µM each time.
Turning to `CCCCCCC(C)(C)c1cc(OC)c(C2=C[C@]3(C)CC[C@H]2C3(C)C)c(OC)c1` [HU-917, (1S,4S)-3-(2,6-dimethoxy-4-(2-methyloctan-2-yl)phenyl)-1,7,7-trimethylbicyclo[2.2.1]hept-2-ene], the inhibition constant Ki on human CB2 receptor [1] (setting [5]) and on human CB1 receptor [2] (setting [6]) was over 50 µM each time. For the same molecule, the IC50 at human CB1 receptor [3] and on human CB2 receptor [4] (setting [7]) was over 50 µM throughout.
Regarding `CCCCCc1cc(OC)c(C2=C[C@@H]3CC[C@@]2(C(=O)OC)C3(C)C)c(OC)c1` [HU-971, (1R,4S)-methyl-2-(2,6-dimethoxy-4-pentylphenyl)-7,7-dimethylbicyclo[2.2.1]hept-2-ene-1-carboxylate], the Ki on human CB2 receptor [1] was 0.704 µM; at human CB1 receptor [2] (setting [6]), over 50 µM. In addition, the half-inhibitory concentration (IC50) at human CB1 receptor [3] was over 50 µM; on human CB2 receptor [4] (setting [9]), 1.53 µM. For the same molecule, on human CB2 receptor [4] (setting [8]), the maximal effect (Emax) came out at 31 ± 4%.
Regarding `CCCCCc1cc(OC)c(C2=C[C@H]3CC[C@]2(C(=O)OC)C3(C)C)c(OC)c1` [HU-972, (1S,4R)-methyl-2-(2,6-dimethoxy-4-pentylphenyl)-7,7-dimethylbicyclo[2.2.1]hept-2-ene-1-carboxylate], the inhibition constant (Ki) is 0.168 µM on human CB2 receptor [1] and over 50 µM on human CB1 receptor [2] (setting [6]). The values for the half-inhibitory concentration (IC50) at human CB1 receptor [3] and at human CB2 receptor [4] (setting [9]) were over 50 µM and 0.313 µM, respectively. Further, the maximal effect (Emax) at human CB2 receptor [4] (setting [8]) was 48 ± 5%.
As to `CCCCCCC(C)(C)c1cc(OC)c(C2=C[C@H]3CC[C@]2(C)C3(C)C)c(OC)c1` [HU-907, (1R,4R)-2-(2,6-dimethoxy-4-(2-methyloctan-2-yl)phenyl)-1,7,7-trimethylbicyclo[2.2.1]hept-2-ene], the Ki is 2.51 µM at human CB2 receptor [1] (setting [5]) and over 50 µM on human CB1 receptor [2] (setting [6]). Further, the concentration for half-maximal inhibition (IC50) at human CB1 receptor [3] and at human CB2 receptor [4] (setting [7]) was over 50 µM in each case.
For `CCCCCc1cc(OC)c(C2=C[C@@H]3CC[C@@]2(CO)C3(C)C)c(OC)c1` [HU-969, (1R,4S)-(2-(2,6-dimethoxy-4-pentylphenyl)-7,7-dimethylbicyclo[2.2.1]hept-2-en-1-yl)methanol], the Ki at human CB2 receptor [1] is 6.46 µM; on human CB1 receptor [2] (setting [6]), over 50 µM. Also, the IC50 on human CB1 receptor [3] and on human CB2 receptor [4] was over 50 µM in each case.
Consider `CCCCCCC(C)(C)c1cc(OC)c(C2=C[C@H]3CC[C@]2(C(=O)OC)C3(C)C)c(OC)c1` [HU-912, (1S,4R)-methyl-2-(2,6-dimethoxy-4-(2-methyloctan-2-yl)phenyl)-7,7-dimethylbicyclo[2.2.1]hept-2-ene-1-carboxylate], for which the results for the inhibition constant Ki on human CB2 receptor [1] (setting [5]) and on human CB1 receptor [2] (setting [6]) were 0.0771 µM and over 10 µM, respectively. In addition, the Emax at human CB1 receptor [3] (CHO, percentage of maximal response of HU-210, mean ± SEM, read-out: cAMP Assay CB1 Receptor Emax) worked out at 112 ± 8%; at human CB2 receptor [4] (CHO; read-out: cAMP Assay CB2 Receptor Emax), 107 ± 4%. Further, the concentration for half-maximal inhibition (IC50) at human CB1 receptor [3] was 3.37 µM; on human CB2 receptor [4] (setting [7]) it was 0.239 µM.
Turning to `CCCCCCC(C)(C)c1cc(OC)c(C2=C[C@@]3(C)CC[C@@H]2C3(C)C)c(OC)c1` [HU-918, (1R,4R)-3-(2,6-dimethoxy-4-(2-methyloctan-2-yl)phenyl)-1,7,7-trimethylbicyclo[2.2.1]hept-2-ene], the inhibitory constant (Ki) on human CB2 receptor [1] (setting [5]) and at human CB1 receptor [2] (setting [6]) was over 50 µM each time. Moreover, the IC50 at human CB1 receptor [3] and on human CB2 receptor [4] (setting [7]) was over 50 µM each time.
Turning to `CCCCCCC(C)(C)c1cc(O)c2c(c1)OC(C)(C)[C@@H]1CC=C(CO)C[C@@H]21` [HU-210, 1,1-Dimethylheptyl-11-hydroxy-tetrahydrocannabinol, reference compound], the inhibition constant (Ki) on human CB1 receptor [2] is 0.00294 µM.
Take `CCCCCCC(C)(C)c1cc(OC)c(C2=C[C@@H]3CC[C@@]2(C)C3(C)C)c(OC)c1` [HU-908, (1S,4S)-2-(2,6-dimethoxy-4-(2-methyloctan-2-yl)phenyl)-1,7,7-trimethylbicyclo[2.2.1]hept-2-ene]: the Ki at human CB2 receptor [1] (setting [5]) and at human CB1 receptor [2] (setting [6]) was over 50 µM each time. The IC50 on human CB1 receptor [3] and at human CB2 receptor [4] (setting [7]) was over 50 µM in each case.
Turning to `CCCCCc1cc(OC)c(C2=C[C@H]3CC[C@]2(CO)C3(C)C)c(OC)c1` [HU-970, (1S,4R)-(2-(2,6-dimethoxy-4-pentylphenyl)-7,7-dimethylbicyclo[2.2.1]hept-2-en-1-yl)methanol], the Ki on human CB2 receptor [1] was 1.27 µM; at human CB1 receptor [2] (setting [6]) it was over 50 µM. The figures for the IC50 at human CB1 receptor [3] and on human CB2 receptor [4] (setting [9]) were over 50 µM and 1.15 µM, respectively. The maximal response (Emax) at human CB2 receptor [4] (setting [8]) stood at 38 ± 2%.
